The subject of this assay is IL-1β secretion, THP-1 cells. The experiment in a line: IL-1β secretion assay in PMA-differentiated THP-1 cells (LPS + nigericin stimulation, IL-1β ELISA). In kind it is cell-based. The settings on record: LPS 25 ng/mL, IL-1β by ELISA. Here is the method: Compounds as provided herein were tested in the following assay. Cell culture medium employed contained RPMI 1640 medium (89%), FBS (10%), Pen/Strep (1%), and 2-mercaptoethanol (0.05 mm). Freezing medium was made up of 90% FBS and 10% DMSO. THP-1 cells were removed from the liquid nitrogen and placed into a 37° C. water bath to thaw, until signs of ice dissipated. The cells were then added to 9 mL of warm cell culture medium and centrifuged for 5 minutes at 1000 rpm. The supernatant was discarded, and the cells were resuspended in new cell culture medium. THP-1 cells were then split and cultured in the cell culture medium, being passaged every 2-3 days with the cell density will be maintained between 5×10^5 and 1.5×10^6 viable cells/mL.
Procedure for […], Secretion Assay in 384-Well Plates
PMA was dissolved in DMSO to make a stock solution at 5 mg/mL and stored in 10 μl aliquots at −20° C. for single use. PMA is added to normal growth medium. LPS was diluted with 1 mL of water solution to provide a 1 mg/mL stock solution and stored in 15 μl aliquots at −20° C. for single use. Nigericin is diluted in ice cold 100% ethanol to 5 mg/mL (6.7 mM) and stored in 75 μL aliquots at −20° C. for single use. Serum-free media contains RPMI 1640 medium (99%), Pen/Strep (1%), and 2-mercaptoethanol (0.05 mM). The two control conditions used to qualify and normalize test compound dose-response curves were as follows: High Control=25 ng/mL LPS, 5 μM Nigericin, 0.5% DMSO, Low Control=25 ng/mL, LPS, 0.5% DMSO.
THP-1 cells were diluted to provide a suspension at a concentration of 1.0×10^6 cells/mL with the total volume of suspension required to enable the desired number of assay plates. The growth media was supplemented with PMA (5 ng/mL final concentration) and the cells were incubated at 37° C. under a humidified atmosphere of 5% CO2 for 40 h.
All media was carefully aspirated from each culture flask. The cells were washed carefully with 1×DPBS. The cells were then briefly digested with trypsin LE for 5 minutes at 23° C. and immediately resuspended in cell growth media. After resuspension, the cells were centrifuged at 1000 rpm for 3 minutes and the supernatant was discarded. The cells were resuspended in DPBS and once again centrifuged at 1000 rpm for 5 minutes. The supernatant was discarded and the cell pellet was resuspended in serum-free media supplemented with LPS (25 ng/mL final concentration) to enable the distribution of 30K THP-1 cells within 45 μL of media into each well of 384-well PDL-coated plates. The 384-well plates were then incubated at 37° C. under a humidified atmosphere of 5% CO2 for 2 h. Following this period, test compounds were dispensed by Tecan across the desired concentration range with all wells normalized to a final 0.5% DMSO concentration. The plates were then incubated at 37° C. under a humidified atmosphere of 5% CO2 for 1 h. Following this period, 5 μL of the 5 mg/mL nigericin stock solution was added to each of the appropriate wells and plates were centrifuged at 1000 rpm for 30 seconds. The plates were the immediately reintroduced to the incubator at 37° C. under a humidified atmosphere of 5% CO2 for 2 h. After this time, 35 μL/well of supernatant was collected and transferred into v-bottom plate and centrifuged at 1000 rpm for 1 minute. These supernatant aliquots were analyzed using an IL-Iβ detection kit as described below. If needed, the test samples could be snap frozen and stored at −80° C. until analyzed.
To prepare each ELISA plate, capture antibody (mAb Mt175) was diluted with PBS to a final concentration of 2 μg/mL and then 20 μL of this solution was added to each well of the ELISA plate. Each plate was allowed to incubate overnight at 4° C. The next day, the capture antibody solution was removed and discarded. Each ELISA plate was washed 4 times with PBST followed by the addition of 25 μL/well of blocking buffer (Licor-927-40010) supplemented with 0.1% Tween 20. […]

[1] abbreviates: Homo sapiens, THP-1, class symbol.
Setting [2] is: Homo sapiens, THP-1, numeric value.

In the case of `N#Cc1cnc(NC(=O)CN2C(=O)c3ccc(Br)cc3C3(CC3)C2=O)nc1` [Example 31, 2-(6′-bromo-1′,3′-dioxospiro[cyclopropane-1,4′-isoquinoline]-2′-yl)-N-(5-cyanopyrimidin-2-yl)acetamide], the concentration for half-maximal inhibition (IC50) (usually the point on the concentration scale where inhibition reaches its midpoint) runs as follows: under setting [1], under 10000 nM; under setting [2], 208 nM.

With `N#Cc1cnc(NC(=O)CN2C(=O)c3ccc(Br)c(F)c3C3(CC3)C2=O)c(F)c1` [Example 18, 2-(6′-bromo-5′-fluoro-1′,3′-dioxospiro[cyclopropane-1,4′-isoquinoline]-2′-yl)-N-(5-cyano-3-fluoropyridin-2-yl)acetamide], the IC50 was under 10000 nM under setting [1] and 331 nM under setting [2].

With `O=C(CN1C(=O)c2ccc(Br)cc2C2(CCC2)C1=O)Nc1ncc(F)cn1` [Example 8, 2-(6′-bromo-1′,3′-dioxospiro[cyclobutane-1,4′-isoquinoline]-2′-yl)-N-(5-fluoropyrimidin-2-yl)acetamide], the 50% inhibitory concentration (IC50) under setting [1] is under 10000 nM and the half-maximal inhibitory concentration (IC50) under setting [2] was determined as 388 nM.

Take `O=C(CN1C(=O)c2ccc(Br)cc2C2(CC2)C1=O)N[C@@H]1CCCN(C2CCC2)C1` [Example 9, 2-(6′-bromo-1′,3′-dioxospiro[cyclopropane-1,4′-isoquinoline]-2′-yl)-N-[(3R)-1-cyclobutylpiperidin-3-yl]acetamide]: the IC50 reads like this: under setting [1], under 10000 nM; under setting [2], 307 nM.

`CC1(C)C(=O)N(CC(=O)Nc2ncc(F)cn2)C(=O)c2ccc(Br)cc21` [Example 7]: the concentration for half-maximal inhibition (IC50) under setting [1] was under 10000 nM and the IC50 under setting [2] came to 269 nM.

With `O=C1c2ccc(Br)cc2C2(CC2)C(=O)N1C1(C(=O)Nc2ncc(F)cn2)CC1` [Example 22, 1-(6′-bromo-1′,3′-dioxospiro[cyclopropane-1,4′-isoquinoline]-2′-yl)-N-(5-fluoropyrimidin-2-yl)cyclopropane-1-carboxamide], the half-inhibitory concentration (IC50) under setting [1] was under 10000 nM and the concentration for half-maximal inhibition (IC50) under setting [2] is 8080 nM.

Turning to `C[C@H]1C[C@@]12C(=O)N(CC(=O)Nc1ncc(F)cn1)C(=O)c1ccc(Br)cc12` (single isomer, unassigned) [Example 14, N-(5-fluoropyrimidin-2-yl)-2-[(1r,2s)-6′-bromo-2-methyl-1′,3′-dioxospiro[cyclopropane-1,4′-isoquinoline]-2′-yl]acetamide], the IC50 runs as follows: (class symbol) under 10000 nM; (numeric value) 6660 nM.

As to `CC1CC12C(=O)N(CC(=O)Nc1ncc(F)cn1)C(=O)c1ccc(Br)cc12` (stereo not drawn) [Example 25, 2-(6′-bromo-2-methyl-1′,3′-dioxospiro[cyclopropane-1,4′-isoquinoline]-2′-yl)-N-(5-fluoropyrimidin-2-yl)acetamide], the IC50 runs as follows: under setting [1], under 10000 nM; under setting [2], 391 nM.

`O=C(CN1C(=O)c2ccc(Br)cc2C2(CC2)C1=O)Nc1ncc(F)cn1` [Example 33, 2-(6′-bromo-1′,3′-dioxospiro[cyclopropane-1,4′-isoquinoline]-2′-yl)-N-(5-fluoropyrimidin-2-yl)acetamide]: the half-maximal inhibitory concentration (IC50) by setting is: under setting [1], under 10000 nM; under setting [2], 184 nM.

Consider `O=C(CN1C(=O)c2ccc(Br)cc2C2(CCCC2)C1=O)Nc1ncc(F)cn1` [Example 12, 2-(6′-bromo-1′,3′-dioxospiro[cyclopentane-1,4′-isoquinoline]-2′-yl)-N-(5-fluoropyrimidin-2-yl)acetamide], for which the IC50 is, setting by setting: under setting [1], under 10000 nM; under setting [2], 1360 nM.

Consider `O=C(CN1C(=O)c2ccc(C(F)(F)F)c(F)c2C2(CC2)C1=O)Nc1ncc(F)cn1` [Example 16, 2-[5′-fluoro-1′,3′-dioxo-6′-(trifluoromethyl)spiro[cyclopropane-1,4′-isoquinoline]-2′-yl]-N-(5-fluoropyrimidin-2-yl)acetamide], for which the half-inhibitory concentration (IC50) by setting is: under setting [1], under 10000 nM; under setting [2], 918 nM.

In the case of `O=C(CN1C(=O)c2ccc(Br)c(F)c2C2(CC2)C1=O)Nc1ncc2cn[nH]c2n1` [Example 24, 2-(6′-bromo-5′-fluoro-1′,3′-dioxospiro[cyclopropane-1,4′-isoquinoline]-2′-yl)-N-(1H-pyrazolo[3,4-d]pyrimidin-6-yl)acetamide], the IC50 reads like this: under setting [1], under 10000 nM; under setting [2], 88 nM.

`CC(C(=O)Nc1ncc(F)cn1)N1C(=O)c2ccc(Br)c(F)c2C2(CC2)C1=O` (stereo not drawn) [Example 21, 2-(6′-bromo-5′-fluoro-1′,3′-dioxospiro[cyclopropane-1,4′-isoquinoline]-2′-yl)-N-(5-fluoropyrimidin-2-yl)propanamide]: the IC50 is under 10000 nM under setting [1] and 936 nM under setting [2].

In the case of `C[C@H]1C[C@@]12C(=O)N(CC(=O)Nc1ncc(F)cn1)C(=O)c1ccc(Br)cc12` (single isomer, unassigned) [Example 13, N-(5-fluoropyrimidin-2-yl)-2-[(1r,2s)-6′-bromo-2-methyl-1′,3′-dioxospiro[cyclopropane-1,4′-isoquinoline]-2′-yl]acetamide], the concentration for half-maximal inhibition (IC50) under setting [1] was under 10000 nM and the IC50 (numeric value) was determined as 286 nM.

For the compound `O=C(CN1C(=O)c2ccc(C3CC3)c(F)c2C2(CC2)C1=O)Nc1ncc(F)cn1` [Example 11, 2-(6′-cyclopropyl-5′-fluoro-1′,3′-dioxospiro[cyclopropane-1,4′-isoquinoline]-2′-yl)-N-(5-fluoropyrimidin-2-yl)acetamide], the IC50 is under 10000 nM under setting [1] and 332 nM under setting [2].

For the compound `O=C(CN1C(=O)c2ccc(Br)cc2C2(COC2)C1=O)Nc1ncc(F)cn1` [Example 19, 2-(6-bromo-1,3-dioxospiro[isoquinoline-4,3′-oxetane]-2-yl)-N-(5-fluoropyrimidin-2-yl)acetamide], the 50% inhibitory concentration (IC50) is under 10000 nM under setting [1] and 4460 nM under setting [2].

Consider `O=C(CN1C(=O)c2ccc(Br)cc2C2(CC2)C1=O)Nc1ncc(Cl)cn1` [Example 32, 2-(6′-bromo-1′,3′-dioxospiro[cyclopropane-1,4′-isoquinoline]-2′-yl)-N-(5-chloropyrimidin-2-yl)acetamide], for which the 50% inhibitory concentration (IC50) under setting [1] is under 10000 nM and the concentration for half-maximal inhibition (IC50) under setting [2] turned out to be 137 nM.

Take `CC1(C(F)(F)F)C(=O)N(CC(=O)Nc2ncc(F)cn2)C(=O)c2ccc(Br)cc21` (stereo not drawn) [Example 17, 2-[6-bromo-4-methyl-1,3-dioxo-4-(trifluoromethyl)isoquinolin-2-yl]-N-(5-fluoropyrimidin-2-yl)acetamide]: the half-inhibitory concentration (IC50) is, setting by setting: under setting [1], under 10000 nM; under setting [2], 2400 nM.

Turning to `N#Cc1cnc(NC(=O)CN2C(=O)c3ccc(Br)c(F)c3C3(CC3)C2=O)nc1` [Example 26, 2-(6′-bromo-5′-fluoro-1′,3′-dioxospiro[cyclopropane-1,4′-isoquinoline]-2′-yl)-N-(5-cyanopyrimidin-2-yl)acetamide], the IC50 is, setting by setting: under setting [1], under 10000 nM; under setting [2], 90 nM.

Regarding `O=C(CN1C(=O)c2ccc(Br)cc2C2(CC(F)(F)C2)C1=O)Nc1ncc(F)cn1` [Example 10, 2-(6′-bromo-1,1-difluoro-1′,3′-dioxospiro[cyclobutane-3,4′-isoquinoline]-2′-yl)-N-(5-fluoropyrimidin-2-yl)acetamide], the IC50 was 10000 to 15000 nM under setting [1] and 13100 nM under setting [2].

As for `O=C(CN1C(=O)c2ccc(Br)c(F)c2C2(CC2)C1=O)Nc1ncc(F)cn1` [Example 29, 2-(6′-bromo-5′-fluoro-1′,3′-dioxospiro[cyclopropane-1,4′-isoquinoline]-2′-yl)-N-(5-fluoropyrimidin-2-yl)acetamide], the IC50 is under 10000 nM under setting [1] and 99 nM under setting [2].

Values taken from patent US20240254132A1, “COMPOUNDS, COMPOSITIONS AND METHODS” (Denali Therapeutics Inc., priority 2021, published 2024).
